Data on three compounds can be found in US20110151485A1, “METHOD FOR SCREENING FOR ANTIANGIOGENIC AGENT, AND METHOD FOR SCREENING FOR ANTIANGIOGENIC SIGNAL GENE” (National University Corporation Tokyo Medical and Dental …, priority 2008, published 2011).

Common to all, as to type: cell-based
For test [1], the system named is PKR. Kind of test: fluorescent antibody staining with phospho-specific anti-PKR antibody, human umbilical vein endothelial cells. The method, then:
Human umbilical endothelial cells cultured in HamF12K were treated with 40 μg/ml of rifampicin or 1.0×10^−9 M of endostatin, and maintained at 37° C. for 30 minutes. Cells were then stained using phospho-specific anti-PKR antibody as the primary antibody, and the presence of phosphorylated PKR was examined in the cells.
Similar experiments were also performed in human umbilical vein endothelial cells pre-treated with structural analog of PKR inhibitor (PKR negative) and then treated with 40 μg/ml rifampicin, as well as in human umbilical vein endothelial cells pre-treated with PKR inhibitor B (8-(imidazole-4-ylmethylene)-6H-azolidino [5,4-g]benzodiazole-7-one, 0.3 μM) and then treated with 40 μg/ml rifampicin or 1.0×10^−9 M endostatin, respectively.

In test [2] the test system is PKR. Kind of test: western blotting with phospho-specific anti-PKR antibody, aorta endothelial cells (rAEC). To be noted: rat aorta derived primary endothelial cells, 4 or 8 hours. The method, then: Similarly, […] aorta endothelial cells (rAEC) were treated respectively with salubrinal (20 μM), rifampicin (40 μg/ml), or endostatin (1.0×10^−9 M); PKR inhibitor A (2-aminopurine, 10 mM) followed by endostatin (1.0×10^−9 M); PKR inhibitor B (8-(imidazole-4-ylmethylene)-6H-azolidino [5,4-g]benzodiazole-7-one, 0.3 μM) followed by rifampicin (40 μg/ml); and PKR inhibitor B (same as above, 0.3 μM) followed by endostatin (1.0×10^−9 M); and maintained at 37° C. for 4 or 8 hours. Total cell extracts from respective samples were subjected to western blotting analysis using phospho-specific anti-PKR antibody to determine the extent of PKR phosphorylation.
In general terms: Immunoblotting shows a protein as a band on a membrane.

The test system of the next test is ID1 gene. Description: real-time quantitative RT-PCR, ID1 gene, human umbilical vein endothelial cells. To be noted: 4 to 8 hours.
The test system of another test is ID3 gene. Kind of test: real-time quantitative RT-PCR, ID3 gene, human umbilical vein endothelial cells. Particulars: 4 to 8 hours.
The next test has as its system Flt gene. Kind of test: real-time quantitative RT-PCR, Flt gene, human umbilical vein endothelial cells. To be noted: 4 to 8 hours.
A further test relates to Ephrin A1 gene. Kind of test: real-time quantitative RT-PCR, Ephrin A1 gene, human umbilical vein endothelial cells. To be noted: 4 to 8 hours.
In a further test the test system is integrinαv gene. Description: real-time quantitative RT-PCR, integrinαv gene, human umbilical vein endothelial cells. To be noted: 4 to 8 hours.
In test [3] the test system is PKR. Kind of test: western blotting with phospho-specific anti-PKR antibody, human retina vessel endothelial cells (hREC). Particulars: 40 μg/ml rifampicin or 1.0×10^−9 M endostatin, 10 to 240 minutes. The method, then: (§1) Human retina vessel endothelial cells (hREC) or human umbilical vein endothelial cells (hUVEC) cultured in HamF12K medium supplemented with 10% bovine fetal serum and growth factors were treated with either 40 μg/ml rifampicin or 1.0×10^−9 M endostatin, and maintained at 37° C. for 10 to 240 minutes. Total cell extracts from the maintained cells were then subjected to western blotting using phospho-specific anti-PKR antibody to examine the time course of PKR phosphorylation.

The test system of test [4] is PKR. Description: western blotting with phospho-specific anti-PKR antibody, human umbilical vein endothelial cells (hUVEC). To be noted: 40 μg/ml rifampicin or 1.0×10^−9 M endostatin, 10 to 240 minutes. The method, then: as §1
The next test concerns PKR mRNA. Kind of test: real-time quantitative RT-PCR, PKR mRNA, human umbilical vein endothelial cells. To be noted: 40 μg/ml rifampicin or 1.0×10^−8 M endostatin, 4 to 8 hours. The method, then: Human umbilical vein endothelial cells cultured in HamF12K medium were treated with 40 μg/ml rifampicin or 1.0×10^−8 M endostatin, and maintained at 37° C. for 4 to 8 hours. Subsequently, total cell extracts were subjected to real-time quantitative RT-PCR using TaqMan probe for PKR mRNA, and the amount of PKR mRNA was quantified. Similar processes were repeated for human umbilical vein endothelial cell samples that were transfected with PKR siRNA prior to rifampicin or endostatin treatment.

The mark [5] stands for this setting: hUVEC transfected with PKR siRNA prior to 40 μg/ml rifampicin or 1.0×10^−8 M endostatin.
Where [6] appears, read: hUVEC, 40 μg/ml rifampicin or 1.0×10^−8 M endostatin.

Method for Ephrin A1 gene: (§2) Human umbilical vein endothelial cells cultured in HamF12K medium were treated with 40 μg/ml rifampicin or 1.0×10^−8 M endostatin, and maintained at 37° C. for 4 to 8 hours. […] After establishing the quantification condition, the amount of mRNA for these genes were quantified. […] Human umbilical vein endothelial cells cultured in HamF12K medium were treated with 20 μM salubrinal, and maintained at 37° C. for 4 to 8 hours. Subsequently, total cell extracts were subjected to real-time quantitative RT-PCR using TaqMan probe for ID1 gene, ID3 gene, integrinαv gene, Flt gene and Ephrin A1 gene, respectively. After establishing the quantification condition, the amount of mRNA for these genes were quantified.
Method for Flt gene: as §2
Method for ID1 gene: as §2
Method for ID3 gene: as §2
Method for integrinαv gene: as §2

On to `O=C1Nc2ccc3ncsc3c2C1=Cc1cnc[nH]1` [PKR inhibitor B, reference compound], for which the “effect of PKR inhibitor pre-treatment on PKR phosphorylation after rifampicin or endostatin treatment (fluorescent antibody)” value in the test with PKR [1] (inhibitor 0.3 μM) was “did not occur”. Besides, the “effect of PKR inhibitor pre-treatment on rifampicin or endostatin induced PKR phosphorylation” value in the test with PKR [2] (inhibitor 0.3 μM) is recorded as “did not induce PKR phosphorylation”.

`O=C(/C=C/c1ccccc1)NC(NC(=S)Nc1cccc2cccnc12)C(Cl)(Cl)Cl` (stereo not drawn) [salubrinal, reference compound]: in the test with ID1 gene (hUVEC, 20 μM salubrinal), the “expression level of mRNA for ID1 gene” value was “decrease”. In addition, the “expression level of mRNA for ID3 gene” value in the test with ID3 gene (hUVEC, 20 μM salubrinal) is on record as “decrease”. In addition, the “expression level of mRNA for Flt gene” value with Flt gene (hUVEC, 20 μM salubrinal) is “decrease”. Besides, the “expression level of mRNA for Ephrin A1 gene” value with Ephrin A1 gene (hUVEC, 20 μM salubrinal) was “decrease”. Moreover, the “expression level of mRNA for integrinαv gene” value with integrinαv gene (hUVEC, 20 μM salubrinal) was “decrease”.

Regarding endostatin, the “phosphorylation of PKR” value is recorded as “enhanced” with PKR [3], “enhanced” with PKR [4] and “induced phosphorylation of PKR” in the test on PKR [2] (rifampicin 40 μg/ml or endostatin 1.0×10^−9 M). In the test on ID1 gene (setting [5]), the “decrease of expression of ID1 gene in PKR siRNA treated samples” value is “did not occur”. Moreover, the “expression level of ID1 gene” value in the test on ID1 gene (setting [6]) is reported as “decreased”. Besides, the “decrease of expression of ID3 gene in PKR siRNA treated samples” value with ID3 gene (setting [5]) is recorded as “did not occur”. Further, the “expression level of ID3 gene” value in the test on ID3 gene (setting [6]) was “decreased”. Moreover, in the test on PKR [1] (40 μg/ml rifampicin or 1.0×10^−9 M endostatin, 30 minutes), the “PKR phosphorylation in the cell (fluorescent antibody)” value was “induced enhancement of PKR phosphorylation”. Further, the “PKR phosphorylation in cells pre-treated with specific PKR inhibitor (fluorescent antibody)” value in the test on PKR [1] (PKR inhibitor B 0.3 μM, then 40 μg/ml rifampicin or 1.0×10^−9 M endostatin) was “did not occur”. In addition, the “phosphorylation of PKR in cells pre-treated with specific PKR inhibitor” value with PKR [2] (PKR inhibitor B 0.3 μM followed by rifampicin 40 μg/ml or endostatin 1.0×10^−9 M) is given as “did not induce PKR phosphorylation”. Further, the “decrease of expression of Flt gene in PKR siRNA treated samples” value with Flt gene (setting [5]) was “did not occur”. In the test on Flt gene (setting [6]), the “expression level of Flt gene” value is “decreased”. Further, the “decrease of expression of Ephrin A1 gene in PKR siRNA treated samples” value in the test with Ephrin A1 gene (setting [5]) is reported as “did not occur”. In addition, the “expression level of Ephrin A1 gene” value in the test with Ephrin A1 gene (setting [6]) is recorded as “decreased”. For the same compound, the “PKR expression (PKR mRNA)” value in the test on PKR mRNA is on record as “increased”. The “decrease of expression of integrinαv gene in PKR siRNA treated samples” value in the test on integrinαv gene (setting [5]) is recorded as “did not occur”. Further, in the test on integrinαv gene (setting [6]), the “expression level of integrinαv gene” value is given as “decreased”.
